According to ChEMBL document CHEMBL2007661, “Compounds: GSK PKIS; Assays: UNC Frye lab” (2012):
Several values for one entry are separate records, joined by “and”; a condition that tells them apart may be missing. Equal values may be shown once.

Assays:
[1] = target: T1, Tyrosine-protein kinase Mer (Homo sapiens) (UniProt Q12866); conditions: at 10 µM
T1 sequence (whole entry): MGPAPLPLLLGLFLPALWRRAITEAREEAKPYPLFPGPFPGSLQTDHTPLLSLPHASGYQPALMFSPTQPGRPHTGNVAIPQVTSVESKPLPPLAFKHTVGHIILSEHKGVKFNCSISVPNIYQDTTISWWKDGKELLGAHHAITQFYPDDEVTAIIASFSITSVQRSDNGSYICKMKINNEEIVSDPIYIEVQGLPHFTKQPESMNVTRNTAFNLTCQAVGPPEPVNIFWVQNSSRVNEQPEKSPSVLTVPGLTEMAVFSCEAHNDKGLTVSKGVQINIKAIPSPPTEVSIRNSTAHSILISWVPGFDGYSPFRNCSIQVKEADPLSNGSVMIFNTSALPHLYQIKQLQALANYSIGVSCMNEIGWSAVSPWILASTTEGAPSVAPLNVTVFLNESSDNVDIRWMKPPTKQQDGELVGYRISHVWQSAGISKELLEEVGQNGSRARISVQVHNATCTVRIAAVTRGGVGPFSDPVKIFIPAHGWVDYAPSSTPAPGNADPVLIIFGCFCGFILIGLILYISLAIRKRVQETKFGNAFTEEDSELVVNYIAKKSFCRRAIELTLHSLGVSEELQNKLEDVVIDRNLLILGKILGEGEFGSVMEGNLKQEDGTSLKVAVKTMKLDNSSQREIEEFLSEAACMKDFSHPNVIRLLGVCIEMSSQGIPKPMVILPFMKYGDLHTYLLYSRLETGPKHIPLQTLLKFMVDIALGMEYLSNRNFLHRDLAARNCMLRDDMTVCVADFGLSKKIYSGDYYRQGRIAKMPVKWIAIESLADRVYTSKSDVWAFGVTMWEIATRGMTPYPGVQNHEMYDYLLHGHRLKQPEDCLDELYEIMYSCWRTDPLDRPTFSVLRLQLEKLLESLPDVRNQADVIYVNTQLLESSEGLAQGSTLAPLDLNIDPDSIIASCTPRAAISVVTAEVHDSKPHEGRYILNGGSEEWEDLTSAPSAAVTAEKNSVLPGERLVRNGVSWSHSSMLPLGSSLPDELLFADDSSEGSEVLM

[2] = target: T2, Inhibitor of nuclear factor kappa-B kinase subunit epsilon (Homo sapiens) (UniProt Q14164); conditions: at 1 µM
T2 sequence (whole entry): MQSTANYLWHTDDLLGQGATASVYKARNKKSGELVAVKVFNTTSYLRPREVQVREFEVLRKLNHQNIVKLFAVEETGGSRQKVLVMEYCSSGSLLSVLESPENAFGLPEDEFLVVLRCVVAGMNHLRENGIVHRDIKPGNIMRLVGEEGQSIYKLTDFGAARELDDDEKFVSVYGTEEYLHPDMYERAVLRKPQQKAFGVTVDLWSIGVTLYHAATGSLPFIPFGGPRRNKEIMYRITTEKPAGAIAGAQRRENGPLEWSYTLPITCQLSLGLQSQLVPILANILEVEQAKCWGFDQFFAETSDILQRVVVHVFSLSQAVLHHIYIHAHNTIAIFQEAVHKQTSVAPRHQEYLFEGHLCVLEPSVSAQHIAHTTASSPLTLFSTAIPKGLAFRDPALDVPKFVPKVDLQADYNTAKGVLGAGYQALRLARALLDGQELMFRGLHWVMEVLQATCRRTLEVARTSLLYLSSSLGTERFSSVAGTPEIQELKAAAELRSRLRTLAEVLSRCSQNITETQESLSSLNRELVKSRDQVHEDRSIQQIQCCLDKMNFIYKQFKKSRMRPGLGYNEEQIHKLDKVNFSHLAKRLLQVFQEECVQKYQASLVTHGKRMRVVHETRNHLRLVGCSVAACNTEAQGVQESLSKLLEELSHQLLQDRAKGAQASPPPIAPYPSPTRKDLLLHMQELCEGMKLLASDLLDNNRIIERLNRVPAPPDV

[3] = target: T3, Inhibitor of nuclear factor kappa-B kinase subunit alpha (Homo sapiens) (UniProt O15111); conditions: at 1 µM
T3 sequence (whole entry): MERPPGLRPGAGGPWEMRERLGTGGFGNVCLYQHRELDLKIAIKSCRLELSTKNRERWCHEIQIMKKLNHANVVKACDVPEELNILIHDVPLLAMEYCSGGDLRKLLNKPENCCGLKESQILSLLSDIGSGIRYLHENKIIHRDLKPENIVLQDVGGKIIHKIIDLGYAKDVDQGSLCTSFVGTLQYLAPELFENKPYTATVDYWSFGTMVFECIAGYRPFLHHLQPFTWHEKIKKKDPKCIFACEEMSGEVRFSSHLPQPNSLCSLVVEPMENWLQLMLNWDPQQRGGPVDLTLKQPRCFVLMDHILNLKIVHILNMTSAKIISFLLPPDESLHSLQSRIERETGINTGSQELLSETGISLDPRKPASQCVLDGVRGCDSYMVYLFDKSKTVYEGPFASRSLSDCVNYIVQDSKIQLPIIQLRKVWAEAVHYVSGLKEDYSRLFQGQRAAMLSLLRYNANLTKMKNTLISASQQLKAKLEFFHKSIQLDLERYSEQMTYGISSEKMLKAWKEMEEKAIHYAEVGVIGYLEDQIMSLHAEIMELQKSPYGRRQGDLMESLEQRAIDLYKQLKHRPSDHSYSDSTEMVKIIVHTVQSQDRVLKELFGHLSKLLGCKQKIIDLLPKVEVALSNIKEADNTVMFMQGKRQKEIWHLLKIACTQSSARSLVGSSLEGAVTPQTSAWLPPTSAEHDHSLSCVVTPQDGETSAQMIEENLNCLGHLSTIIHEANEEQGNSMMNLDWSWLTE

## CN(c1ccc(NC(=O)NCCN2CCOCC2)cc1)c1ccnc(Nc2ccc(CS(C)(=O)=O)cc2)n1
[1]
  inhibition: 101%
[2]
  inhibition: 2% and 5%
[3]
  inhibition: 1%

## CS(=O)(=O)Nc1cccc(-c2ccc3c(NC(=O)C4CC4)n[nH]c3c2)c1
[1]
  inhibition: 47%
[2]
  inhibition: 0%
[3]
  inhibition: 4% and 3%

## COc1cc(C)c(N(C)C(=O)CN(C)C)cc1Nc1nc(Nc2cccc(F)c2C(N)=O)c2cc[nH]c2n1
[1]
  inhibition: 50%
[2]
  inhibition: -3% and -2%
[3]
  inhibition: 4% and 3%

## O=C(O[C@H]1CN[C@H](C#Cc2cc3ncnc(Nc4ccc5c(cnn5Cc5ccccc5)c4)c3s2)C1)N1CCOCC1
[1]
  inhibition: 15%
[2]
  inhibition: 1% and 2%
[3]
  inhibition: 4% and 3%

## Cc1nnc(-c2ccc(C)c(-c3ccc(C(=O)Nc4cccc(C#N)c4)cc3)c2)o1
[1]
  inhibition: 7%
[2]
  inhibition: -2% and -1%
[3]
  inhibition: -1% and 3%

## CC(C)COC(=O)c1ccc2c(c1)/C(=C/Nc1ccc(S(N)(=O)=O)cc1)C(=O)N2
[1]
  inhibition: 0%
[2]
  inhibition: 94%
[3]
  inhibition: -4% and -9%

## COc1cc(C)c(NC(=O)CN(C)C)cc1Nc1nc(Nc2cccc(F)c2C(N)=O)c2cc[nH]c2n1
[1]
  inhibition: 52%
[2]
  inhibition: 9% and 8%
[3]
  inhibition: 2% and 3%

## Cc1nn(C)c2cc(N(C)c3ccnc(Nc4cccc(S(N)(=O)=O)c4)n3)ccc12
[1]
  inhibition: -8%
[2]
  inhibition: 2%
[3]
  inhibition: -8% and 0%

## Fc1ccc(-c2nn3ccccc3c2-c2ccncc2)cc1
[1]
  inhibition: -2%
[2]
  inhibition: -4% and 2%
[3]
  inhibition: 7% and 5%

## COc1cc2c(cc1Nc1nc(N3CCc4ccccc43)c3cc[nH]c3n1)N(C(=O)CN(C)C)CC2
[1]
  inhibition: 3%
[2]
  inhibition: 21% and 19%
[3]
  inhibition: 3%

## C[C@@H](Oc1cc(-n2cnc3ccc(OCC4CCN(C)CC4)cc32)sc1C(N)=O)c1ccccc1C(F)(F)F
[1]
  inhibition: 5%
[2]
  inhibition: 2% and 4%
[3]
  inhibition: 3%

## NS(=O)(=O)c1ccc(N/N=C2\C(=O)Nc3ccc(C(=O)NCCCn4ccnc4)cc32)cc1
[1]
  inhibition: -4%
[2]
  inhibition: 27%
[3]
  inhibition: -3% and -4%

## NS(=O)(=O)c1ccc(N/N=C2\C(=O)Nc3cccc(CCc4ccncc4)c32)cc1
[1]
  inhibition: -5%
[2]
  inhibition: 5% and 3%
[3]
  inhibition: 5%

## O=C(Nc1ccc(Oc2ccc3[nH]c(NC(=O)c4ccccc4)nc3c2)cc1)Nc1cc(C(F)(F)F)ccc1F
[1]
  inhibition: 78%
[2]
  inhibition: 6% and 5%
[3]
  inhibition: 11%

## CCn1c(-c2nonc2N)nc2c(N3CCCC3)nccc21
[1]
  inhibition: -3%
[2]
  inhibition: -3% and -4%
[3]
  inhibition: 3% and 2%

## CC(C)c1ccc(Nc2nccc(-c3cnn4ncccc34)n2)cc1
[1]
  inhibition: 32%
[2]
  inhibition: 15% and 11%
[3]
  inhibition: 2% and -1%

## COc1cc(Nc2ncc(-c3ccccc3)o2)cc(OC)c1OC
[1]
  inhibition: 68%
[2]
  inhibition: 17% and 13%
[3]
  inhibition: 1% and 0%

## OCc1ccc(-c2nc(-c3ccccn3)c(-c3ccc4c(c3)OCO4)[nH]2)cc1
[1]
  inhibition: -6%
[2]
  inhibition: -2%
[3]
  inhibition: 14% and 7%

## COc1cc2ncn(-c3cc(OCc4ccccc4C(F)(F)F)c(C(=O)N(C)C)s3)c2cc1OC
[1]
  inhibition: -10%
[2]
  inhibition: -1%
[3]
  inhibition: 1% and 0%

## O=C(Nc1n[nH]c2nnc(-c3cccnc3)cc12)C1CC1
[1]
  inhibition: -7%
[2]
  inhibition: -1% and 1%
[3]
  inhibition: 5% and 7%

## NCc1ccc(-n2c(-c3nonc3N)nc3cnccc32)cc1
[1]
  inhibition: -3%
[2]
  inhibition: 2%
[3]
  inhibition: 40% and 38%

## COc1cccc(-n2cnc3c(N/N=C/c4ccncc4)ncnc32)c1
[1]
  inhibition: -4%
[2]
  inhibition: 1% and 0%
[3]
  inhibition: 2% and -3%

## Cc1cc(O)cc(C)c1/C=C/c1cncc(C(=O)N(C)C)c1
[1]
  inhibition: -4%
[2]
  inhibition: 3% and 1%
[3]
  inhibition: -8% and -5%

## COC(=O)Nc1nc2ccc(Oc3ccc(NC(=O)Nc4cccc(Cl)c4)cc3)cc2[nH]1
[1]
  inhibition: 2%
[2]
  inhibition: 2% and 1%
[3]
  inhibition: -3% and -2%

## COC(=O)c1ccc2c(c1)C(=Cc1cc(Br)c(O)c(Br)c1)C(=O)N2
[1]
  inhibition: 5%
[2]
  inhibition: 51% and 52%
[3]
  inhibition: -7%

## COc1cccc(-n2ncc3c(N/N=C/c4cccc(F)c4)ncnc32)c1
[1]
  inhibition: -3%
[2]
  inhibition: -1% and 0%
[3]
  inhibition: 1% and 0%

## CCn1c(-c2nonc2N)nc2c(C#CC(C)(C)O)nc(OCCNC)cc21
[1]
  inhibition: -6%
[2]
  inhibition: 44% and 46%
[3]
  inhibition: 6% and 5%

## O=C1NC(=O)C(c2ccc(Cl)cc2)=C1Nc1ccc(Cl)c(C(=O)O)c1
[1]
  inhibition: 62%
[2]
  inhibition: 1% and 2%
[3]
  inhibition: 3%

## O=C(NCC1CC1)c1ccc(-c2cccc(C(=O)NC3CC3)c2)cc1
[1]
  inhibition: 0%
[2]
  inhibition: -5% and 0%
[3]
  inhibition: -4% and -5%

## CCn1c(-c2nonc2N)nc2ccncc21
[1]
  inhibition: 32%
[2]
  inhibition: -2% and -1%
[3]
  inhibition: 4% and 1%

## c1ccc(Nc2ncc(-c3ccccc3)o2)cc1
[1]
  inhibition: 0%
[2]
  inhibition: 0% and -1%
[3]
  inhibition: -1% and 0%

## NC(=O)c1ccc(-c2nc(-c3ccccn3)c(-c3ccc4c(c3)OCO4)[nH]2)cc1
[1]
  inhibition: 1%
[2]
  inhibition: -1% and -3%
[3]
  inhibition: -3%

## CCN1CCC(CC(=O)Nc2n[nH]c3nc(-c4cccs4)c(Br)cc23)CC1
[1]
  inhibition: -2%
[2]
  inhibition: 2% and 1%
[3]
  inhibition: -9% and 5%

## CNC(=O)c1cncc(/C=C/c2ccccc2C)c1
[1]
  inhibition: -5%
[2]
  inhibition: 3% and 1%
[3]
  inhibition: 4% and -3%

## CN1CCC(C(=O)Nc2n[nH]c3nnc(-c4ccccc4)cc23)CC1
[1]
  inhibition: 1%
[2]
  inhibition: -3%
[3]
  inhibition: 3%

## CNC(=O)c1ncccc1Nc1nc(Nc2cc3c(cc2OC)CCCN3C(=O)CN(C)C)nc2[nH]ccc12
[1]
  inhibition: 77%
[2]
  inhibition: 0% and 5%
[3]
  inhibition: 6% and 5%

## Nc1nonc1-c1nc2cnccc2n1C1CC1
[1]
  inhibition: 48%
[2]
  inhibition: 11% and 21%
[3]
  inhibition: 29% and 33%

## CN1CCC(n2cnc(-c3ccc(F)cc3)c2-c2ccnc(Nc3ccccc3)n2)CC1
[1]
  inhibition: -1%
[2]
  inhibition: 0% and -2%
[3]
  inhibition: -1% and 0%

## O=S(=O)(CCNCc1ccc(-c2ccc3ncnc(Nc4ccc(OCc5cccc(F)c5)c(Cl)c4)c3c2)o1)c1ccccc1
[1]
  inhibition: 72%
[2]
  inhibition: -2% and -1%
[3]
  inhibition: 4% and 12%

## CN(C)CCCNc1nccc(-c2c(-c3ccc(F)cc3)nn3cc(C(F)(F)F)ccc23)n1
[1]
  inhibition: 0%
[2]
  inhibition: -1% and 0%
[3]
  inhibition: 2% and 3%
